In patent US7312181B2, “Acylated thiosemicarbazides as herbicides” (Cropsolution, Inc., priority 2005, dated 2007):

test system: Arabidopsis thaliana; assay: Plate-based in vivo herbicidal screen, Arabidopsis thaliana; conditions: 192 h, seeds in 96-well plate, 27° C., 8 days, continuous fluorescent lighting, scored by visual inspection
Protocol: Plate-based in vivo screens were used to identify compounds with herbicidal activity. Three species of plants were used in screening: Arabidopsis thaliana, Agrostis sp. and Nicotinia tabacum (common tobacco). Test compounds in 1 μL of dimethylsulfoxide (DMSO) were delivered to individual wells of a 96-well microtiter plate. Growth media containing 10-15 seeds per 100 uL were then added. The growth media consisted of Murashige and Skoog Basal salt mixture, and 0.15% low melt agarose, all at a pH 6.2. The seeds remained neutrally buoyant and were easily pipettable at this concentration of low melt agarose. Each plate contained a column of untreated control wells in order to determine the false positive rate. The plates were covered and sealed and incubated at 27° C. for 8 days under continuous fluorescent lighting (155 umol/m^2/s). The plates were scored for herbicidal activity by visual inspection. Observed symptomology included growth inhibition, bleaching, leaf curling, and root growth inhibition. Six commercial herbicide standards were run concurrently with the experimental compounds as internal controls for assay sensitivity and plant response. The standards are described in Table 1 with their biochemical mode of action. The herbicidal activity of compositions in the present invention, presented as EC90 concentrations in the Arabidopsis thaliana screen, is tabulated in Table 2.

SMILES | EC90 [nM]
O=C(Nc1cccc(C(=O)NNC(=S)Nc2ccccc2Cl)c1Cl)c1cccc(Cl)c1 [Compound 3, 1-[2-Chloro-3-(3-chloro-benzamido)-benzoyl]-4-(2-chlorophenyl)-thiosemicarbazide] | 3300
O=C(NNC(=S)Nc1ccccc1Cl)c1cccc(NC(=O)c2cccc(C(F)(F)F)c2)c1 [Compound 12, 4-(2-Chlorophenyl)-1[3-(3-trifluoromethylbenzamido)-benzoyl]-thiosemicarbazide] | 300
O=C(NNC(=S)Nc1ccccc1Cl)c1ccc(Cl)c(NC(=O)c2cccc(C(F)(F)F)c2)c1 [Compound 11, 4-(2-Chlorophenyl)-1-[4-chloro-3-(3-trifluoromethylbenzamido)-benzoyl]-thiosemicarbazide] | 3300
O=C(NNC(=S)Nc1ccccc1Cl)c1cccc(NC(=O)c2cc(F)ccc2F)c1 [Compound 22, 4-(2-Chlorophenyl)-1-[3-(2,5-difluorobenzamido)-benzoyl]-thiosemicarbazide] | 50
O=C(NNC(=S)Nc1ccccc1C(F)(F)F)c1cccc(NC(=O)c2cccc(Cl)c2)c1 [Compound 7, 1-[3-(3-Chlorobenzamido)-benzoyl]-4-(2-trifluoromethylphenyl)-thiosemicarbazide] | 1200
O=C(NNC(=S)Nc1ccccc1Cl)c1cccc(NC(=O)c2cccc(F)c2)c1 [Compound 23, 4-(2-Chlorophenyl)-1-[3-(3-fluorobenzamido)-benzoyl]-thiosemicarbazide] | 50
O=C(Nc1cccc(C(=O)NNC(=S)Nc2ccccc2Cl)c1Cl)c1cccc(C(F)(F)F)c1 [Compound 14, 4-(2-Chlorophenyl)-1-[2-chloro-3-(3-trifluoromethylbenzamido)-benzoyl]-thiosemicarbazide] | 300
O=C(NNC(=S)Nc1ccccc1Cl)c1cccc(NC(=O)c2cccc(Cl)c2)c1 [Compound 2, 1-[3-(3-Chlorobenzamido)-benzoyl]-4-(2-chlorophenyl)-thiosemicarbazide] | 100
Cc1c(NC(=O)c2cccc(Cl)c2)cccc1C(=O)NNC(=S)Nc1ccccc1Cl [Compound 4, 1-[3-(3-Chlorobenzamido)-2-methylbenzoyl]-4-(2-chloro-phenyl)-thiosemicarbazide] | 300
O=C(NNC(=S)Nc1ccccc1F)c1cccc(NC(=O)c2cccc(Cl)c2)c1 [Compound 9, 1-[3-(3-Chlorobenzamido)-benzoyl]-4-(2-fluorophenyl)-thiosemicarbazide] | 50
O=C(NNC(=S)Nc1ccccc1)c1cccc(NC(=O)c2cccc(Cl)c2)c1 [Compound 6, 1-[3-(3-Chlorobenzamido)-benzoyl]-4-phenyl-thiosemicarbazide] | 150
